A word on the CC50: it is the concentration giving 50% cytotoxicity. By melting point is commonly meant the temperature of the solid-liquid transition. What is called EC50 is the concentration that produces a half-maximal response. As usually defined, the inhibition is the relative decrease from the control value, in per cent.

Six molecules from article PMC8129498, “Synthesis, Antitumor and Antiviral In Vitro Activities of New Benzotriazole-Dicarboxamide Derivatives” (Frontiers in Chemistry, 2021) can be followed below.

Structures are written as SMILES. Like-named read-outs stand apart in the source and are kept apart here.

The nature of series [1]: Cytotoxicity in Vero-76 cell-line (MTT). The settings on record: monkey (Cercopithecus aethiops), Vero-76 cells (mock-infected), mock-infected Vero-76 cells. It counts as cell-based. As for the experimental part:
Vero-76 cells were seeded in 96-well plates at an initial density of 5 × 10^5 cells/ml, in Dulbecco’s Modified Eagle Medium (D-MEM) with L-glutamine and 25 mg/L kanamycin, supplemented with 10% FBS. Cell cultures were then incubated at 37°C in a humidified and 5% CO2 atmosphere, in the absence or presence of serial dilutions of test compounds. The test medium used for the cytotoxic assay as well as for antiviral assay contained 1% of the appropriate serum. Cell viability was determined after 48–96 h at 37°C by MTT method for Vero-76 ([Pauwels et al., 1988]).
(§1) The extent of cell growth/viability and viral multiplication, at each drug concentration tested, were expressed as percentage of untreated controls. Concentrations resulting in 50% inhibition (CC50 or EC50) were determined by linear regression analysis.

The next series concerns HeLa. Put plainly: Antiproliferative assay (MTT), HeLa. The series is classed as cell-based. The settings on record: Homo sapiens, 96 h, read-out: CC50 HeLa. The protocol:
(§2) Cell lines were purchased from American Type Culture Collection (ATCC). The absence of mycoplasma contamination was checked periodically by the Hoechst staining method. Exponentially growing leukemia and lymphoma cells were seeded at 1 × 10^5 cells/ml in 96 well plates in RPMI-1640 medium, supplemented with 10% fetal bovine serum, 100 units/ml penicillin G, and 100 μg/ml streptomycin, and incubated at 37°C in a humidified, 5% CO2 atmosphere in the absence or presence of serial dilutions of test compounds. Cell viability was determined after 96 h at 37°C by the 3-(4,5-dimethylthiazol-2-yl)-2,5-diphenyl-tetrazolium bromide (MTT) method. Activity against solid-tumor derived cells was evaluated in exponentially growing cultures seeded at 5 × 10^4 cells/ml and allowed to adhere for 16 h to culture plates before the addition of the drugs. Cell viability was determined by the MTT method 4 days later. Vincristine and doxorubicin were used as reference drugs.
as §1

Another series relates to SK-MES1. Kind of series: Antiproliferative assay (MTT), SK-MES1. The settings on record: Homo sapiens, SK-MES-1, 96 h, read-out: CC50 SK-MES1. The series is classed as cell-based. The protocol: as §2, §1
For series [2], the system named is Coxsackievirus B5 (CV-B5). Put plainly: Plaque reduction assay, CV-B5 in Vero-76 monolayers. The series is classed as cell-based. The settings on record: Enterovirus B. (Plaque reduction counts the foci of infection that form in a cell layer.)
The subject of another series is Poliovirus type-1 (Sb-1). Put plainly: microbe, parasite or virus in culture. The following applies: Enterovirus C, Vero 76, read-out: EC50, plaque reduction Sb-1. The series is classed as cell-based.
Series [3] is described as follows: Antiproliferative assay (MTT), CRL 7065 control fibroblasts. The series is classed as cell-based, human. As for the experimental part: as §2, §1
The next series relates to CCRF-SB. Kind of series: Antiproliferative assay (MTT), CCRF-SB. The series is classed as cell-based. The following applies: Homo sapiens, 96 h, read-out: CC50 CCRF-SB. As for the experimental part: as §2, §1
For the next series, the system named is SK-MEL28. Kind of series: Antiproliferative assay (MTT), SK-MEL28. The series is classed as cell-based. The following applies: Homo sapiens, SK-MEL-28, 96 h, read-out: CC50 SK-MEL28. As for the experimental part:
as §2, §1

Another series concerns CCRF-CEM. Kind of series: Antiproliferative assay (MTT), CCRF-CEM. The series is classed as cell-based, human. The settings on record: for CC50: Homo sapiens, CCRF-CEM, 96 h, read-out: CC50 CCRF-CEM. The protocol: as §2, §1
For a further series, the system named is DU145. Put plainly: Antiproliferative assay (MTT), DU145. The following applies: Homo sapiens, DU-145, 96 h, read-out: CC50 DU145. The series is classed as cell-based. The protocol:
as §2, §1

The subject of another series is WIL-2NS. Kind of series: Antiproliferative assay (MTT), WIL-2NS. The series is classed as cell-based. The following applies: Homo sapiens, WIL2-NS, 96 h, read-out: CC50 WIL-2NS. As for the experimental part: as §2, §1
The test system of the next series is breast cancer cell lines. Put plainly: NCI60 Human Tumor Cell Lines Screen, breast cancer lines. It counts as cell-based. The settings on record: most of the breast cancer cell lines, read-out: Percentage of Growth Inhibition (PGI). The protocol: (§3) The in vitro anti-cancer screening was performed through the NCI60 Human Tumor Cell Lines Screen, provided by the Developmental Therapeutics Program of the National Cancer Institute (NCI, Bethesda, United States). A single dose of 10 µM of each compound is tested in the whole NCI60 cell panel. More details about the NCI60 screen methods are reported on the NCI website (https://dtp.cancer.gov ).

The subject of the next series is SK-MES 1 cells. Kind of series: Apoptosis assay (Annexin V/PI, flow cytometry). The settings on record: 96 h. It counts as cell-based, human. The protocol: 3b compound was selected as lead and employed in our assay. Human lung cancer cells (SK-MES 1) were seeded at the density of 8 × 10^5 cells/ml in 6-well plates (Corning, United States) with a complete medium (described in cell culture section). After overnight incubations, the cells were treated with or without different concentrations of 3b for 96 h. Cells were then labeled with Annexin V and PI as previously described ([Ibba et al., 2021]). Stained cells were then analyzed by flow cytometry, measuring the fluorescence emission at 530 and 620 nm using 488 nm excitation laser (MoFloAstrios EQ, Beckman Coulter). Cell apoptosis was analyzed using Software Summit Version 6.3.1.1, Beckman Coulter.
Background: A flow cytometer gives signals particle by particle.

The test system of another series is OVCAR-4. Put plainly: NCI60 Human Tumor Cell Lines Screen, OVCAR-4. The series is classed as cell-based. The following applies: OVCAR-4 ovarian cancer cell line, read-out: Percentage of Growth Inhibition (PGI). The protocol: as §3
Series [4] concerns panel of 60 human tumor cell lines. Kind of series: NCI60 Human Tumor Cell Lines Screen, whole panel. The series is classed as cell-based. The settings on record: 10 μM, of the 60 cell lines. As for the experimental part: as §3
For series [5], the system named is prostate cancer cell lines. Kind of series: NCI60 Human Tumor Cell Lines Screen, prostate cancer lines. The series is classed as cell-based. The following applies: the two prostate cancer cell lines. The protocol:
as §3

[6] abbreviates: MTT, human foreskin fibroblasts, non-tumor control, read-out: CC50 CRL 7065.

With `O=C(CCCC(=O)Nc1ccc(Cn2nnc3cc(Cl)c(Cl)cc32)cc1)Nc1ccc(Cn2nnc3cc(Cl)c(Cl)cc32)cc1` [Compound 9b, N ^1,N ^5-Bis(4-((5,6-Dichloro-1H-Benzo[d][1,2,3]Triazol-1-yl)methyl)phenyl)Glutaramide], the melting point fell in the range of 204 to 206 °C. The same molecule yielded a CC50 in series [1] of 75 µM. For the same molecule, in the series on HeLa, the CC50 was 5.4 ± 0.7 µM. Also, the CC50 in the series on SK-MES1 stood at 9.9 ± 3.1 µM. Besides, in series [2], the EC50 amounted to 52 µM. The EC50 in the series on Poliovirus type-1 (Sb-1) is more than 75 µM. Further, in [3] (setting [6]), the CC50 at 96 h came to 6.7 ± 2.4 µM. In the series with CCRF-SB, the CC50 came to 8.5 ± 3.2 µM. Further, the CC50 in the series with SK-MEL28 was determined as 2.6 ± 0.7 µM. Also, the CC50 in the series on CCRF-CEM is 5.5 ± 1.8 µM. For the same molecule, in the series with DU145, the CC50 stood at 5.2 ± 0.4 µM. Also, the CC50 in the series with WIL-2NS worked out at 23 ± 7 µM.
For `O=C(/C=C/C(=O)Nc1ccc(-n2nnc3cc(Cl)c(Cl)cc32)cc1)Nc1ccc(-n2nnc3cc(Cl)c(Cl)cc32)cc1` [Compound 3d, N ^1 ,N ^4-Bis(4-(5,6-Dichloro-1H-Benzo[d][1,2,3]Triazol-1-yl)phenyl)fumaramide], the melting point was more than 300 °C. In addition, the CC50 with HeLa was more than 100 µM. Further, the CC50 in the series with SK-MES1 is more than 100 µM. The CC50 at 96 h in series [3] (setting [6]) is 0.37 ± 0.04 µM. Moreover, the CC50 with CCRF-SB worked out at 7.9 ± 0.9 µM. Besides, the CC50 in the series with SK-MEL28 was more than 100 µM. Besides, the CC50 with CCRF-CEM was 0.07 ± 0.02 µM. For the same molecule, the “selectivity index (SI)” value in the series with CCRF-CEM (ratio of CC50 of non-tumor cells (CRL 7065) and CC50 of tumor cells (CCRF-CEM)) was 5.3. For the same molecule, the CC50 with DU145 was more than 100 µM. Also, the CC50 in the series with WIL-2NS was more than 100 µM.
For `CC[C@]1(O)C[C@H]2CN(CCc3c([nH]c4ccccc34)[C@@](C(=O)OC)(c3cc4c(cc3OC)N(C=O)[C@H]3[C@@](O)(C(=O)OC)[C@H](OC(C)=O)[C@]5(CC)C=CCN6CC[C@]43[C@@H]65)C2)C1` [Vincristine, reference compound], the CC50 in the series with HeLa is 0.05 ± 0.02 µM; in the series on SK-MES1 it was 0.01 ± 0.02 µM; in the series on CCRF-SB it was 0.003 ± 0.001 µM; in the series on SK-MEL28, more than 4 µM; in the series on CCRF-CEM, 0.003 ± 0.001 µM; in the series with DU145, 0.02 ± 0.01 µM. Further, the CC50 in the series on WIL-2NS was 0.006 ± 0.002 µM. The CC50 at 96 h in series [3] (setting [6]) is more than 4 µM.
Regarding `COc1cccc2c1C(=O)c1c(O)c3c(c(O)c1C2=O)C[C@@](O)(C(=O)CO)C[C@@H]3O[C@H]1C[C@H](N)[C@H](O)[C@H](C)O1` [Doxorubicin, reference compound], the CC50 in the series on HeLa was 1.8 ± 0.2 µM; in the series with SK-MES1 it was 0.65 ± 0.05 µM; in the series with CCRF-SB, 0.03 ± 0.02 µM; in the series on SK-MEL28, 1.1 ± 0.2 µM; in the series on CCRF-CEM it was 0.02 ± 0.01 µM; with DU145, 0.3 ± 0.1 µM. In addition, the CC50 with WIL-2NS is 0.06 ± 0.01 µM. The same molecule had a CC50 at 96 h in series [3] (human) of 2 ± 0.2 µM.
In the case of `O=C(CCCC(=O)Nc1ccc(-n2nnc3cc(Cl)c(Cl)cc32)cc1)Nc1ccc(-n2nnc3cc(Cl)c(Cl)cc32)cc1` [Compound 3b, N ^1,N ^5-Bis(4-(5,6-Dichloro-1H-Benzo[d][1,2,3]Triazol-1-yl)phenyl)glutaramide], the inhibition at 10 µM is 48 to 81% with breast cancer cell lines; 106% in the series with OVCAR-4; 80% in series [5] (Homo sapiens, read-out: Percentage of Growth Inhibition (PGI)). The CC50 was 7.1 ± 2.7 µM in the series with HeLa; 6.8 ± 3.5 µM in the series on SK-MES1; 0.35 ± 0.07 µM in the series with CCRF-SB; 6.2 ± 1.3 µM with SK-MEL28; 0.5 ± 0.1 µM in the series with CCRF-CEM; 5.1 µM in the series on DU145. In addition, the CC50 with WIL-2NS is more than 100 µM. Also, the “% Early apoptotic cells” value in the series with SK-MES 1 cells (7μM) amounted to 21.4 ± 12.32%; in the series with SK-MES 1 cells (20μM) it was 28.5 ± 4.63%. In addition, the results for the “% Late apoptotic cells” value with SK-MES 1 cells (7μM) and with SK-MES 1 cells (20μM) were 10.5 ± 0.67% and 11.1 ± 2.08%, respectively. Moreover, the “% Live cells” value in the series with SK-MES 1 cells (7μM) came out at 63.8 ± 1.1%; in the series with SK-MES 1 cells (20μM), 54.8 ±4.9%. In addition, the “% Necrotic cells” value with SK-MES 1 cells (7μM) is given as 4.3 ± 0.74%; with SK-MES 1 cells (20μM), 5.6 ±1.74%. For the same molecule, the values for the apoptotic cells in the series with SK-MES 1 cells (7 µm) and in the series with SK-MES 1 cells (20 µm) were 32% and 40%, respectively. For the same molecule, in series [4], the “number of cell lines with PGI higher than 50%” value amounted to 29. Moreover, the CC50 at 96 h in series [3] (setting [6]) is 0.75 ± 0.05 µM. Besides, the “Percentage of Growth Inhibition (PGI)” value in series [5] (10 μM) came out at 66%.
Take `O=C(O)/C=C/C(=O)Nc1ccc(-n2nnc3cc(Cl)c(Cl)cc32)cc1` [Compound 4d, (E)-4-((4-(5,6-Dichloro-1H-Benzo[d][1,2,3]Triazol-1-yl)phenyl)amino)-4-oxobut-2-enoic Acid]: the melting point lay within 231 to 233 °C. Also, in [1], the CC50 was more than 100 µM. The CC50 in the series on HeLa was more than 100 µM. Further, the CC50 in the series with SK-MES1 was more than 100 µM. Moreover, in series [2], it took 10 µM to reach a half-maximal effect (EC50). For the same molecule, the EC50 in the series on Poliovirus type-1 (Sb-1) is more than 100 µM. Besides, the CC50 at 96 h in [3] (setting [6]) is 1.7 ± 0.1 µM. Also, the CC50 in the series with CCRF-SB is 0.51 ± 0.13 µM. For the same molecule, the CC50 in the series with SK-MEL28 was more than 100 µM. In addition, the CC50 in the series on CCRF-CEM is 3.3 ± 1.7 µM. Besides, the CC50 with DU145 is more than 100 µM. Further, the CC50 with WIL-2NS worked out at 64 ± 10 µM.
